This is an account of results in patent US20250032464A1, “SOLID DISPERSION, PREPARATION METHOD THEREFOR, AND SOLID FORMULATION CONTAINING SAME” (HAIHE BIOPHARMA CO., LTD., priority 2021, published 2025).

Where two headings read alike, the source gives them in different places.

In one data set the test system is P-gp. Description: in vitro. The following applies: human, Caco-2.
Another data set is described as follows: in vitro. The following applies: human, Caco-2.
The conditions of data set [1]: for Equilibrium solubility, 24 h: 37° C.
The next data set relates to Caco-2 cell model. As to conditions: for The ratio of apparent permeability: human.

With `C[C@H]1O[C@@H](O[C@H]2[C@@H](O)C[C@H](O[C@H]3[C@@H](O)C[C@H](O[C@H]4CC[C@@]5(C)[C@H](CC[C@@H]6[C@@H]5C[C@@H](O)[C@]5(C)[C@@H](C7=CC(=O)OC7)CC[C@]65O)C4)O[C@@H]3C)O[C@@H]2C)C[C@H](O)[C@@H]1O` [Digoxin, digoxin], the efflux ratio in the data set with P-gp amounted to 165. In “in vitro”, this molecule displayed a Papp A→B of 0.08 ± 0.01 ×10⁻⁶ cm/s and a Papp B→A of 12.5 ± 0.9 ×10⁻⁶ cm/s.

Take `Cn1cc(-c2cnc3cnn(S(=O)(=O)c4cnc5ccc(-c6cnn(C)c6)cn45)c3c2)cn1` [Compound A, 1-{(6-[(1-methyl)-4-pyrazolyl]-imidazo[1,2-a]pyridine)-3-sulfonyl}-6-[(1-methyl)-4-pyrazolyl]-1-hydro-pyrazolo[4,3-b]pyridine]: the “Equilibrium solubility, 24 h” value was 0.1 µg/mL in data set [1] (Water), 0.5 µg/mL in data set [1] (pH 1.2 simulated gastric fluid), 0.1 µg/mL in data set [1] (pH 4.5 phosphate buffer solution) and 0.1 µg/mL in data set [1] (pH 6.8 simulated intestinal fluid). In data set [1] (media with different pH values), the solubility result is listed as “less than 1 μg/mL”. Moreover, the in vivo bioavailability result (after direct administration) is listed as “less than 1%”. Further, the bioavailability (micronized compound A) was 3.3%. The permeability characteristic entry in the data set with Caco-2 cell model (Caco-2) is “high permeability characteristic”. Also, the “The ratio of apparent permeability” value in the data set on Caco-2 cell model (Caco-2, 2 μM) worked out at 1.21; in the data set with Caco-2 cell model (Caco-2, 10 μM) it was 2.27; with Caco-2 cell model (Caco-2, 50 μM), 0.64.

On to `CC(C)NCC(O)COc1cccc2ccccc12` (centres unmarked) [Propranolol, propranolol], for which, in the data set on P-gp, the efflux ratio is 1.24. In the data set “in vitro”, this molecule gave a Papp A→B of 13.7 ± 0.67 ×10⁻⁶ cm/s and a Papp B→A of 17 ± 0.32 ×10⁻⁶ cm/s.
